Test results: ChEMBL document CHEMBL5608224, “Novel KRAS Inhibitors for Treating Non-small Cell Lung Cancer” (ACS Med Chem Lett, 2024)

Assay: Inhibition of recombinant GMPPNP-loaded KRAS-G12C mutant (unknown origin) /recombinant GST-tagged RAF RBD (unknown origin) complex assessed as disruption preincubated with KRAS G12C for 20 mins followed by RAF addition and measured after 20 mins by HTRF assay
Parameters: species or system Homo sapiens

In the case of `C#Cc1cccc2cccc(-c3ccc4c(N(C)[C@@H]5CCN(C(=O)/C(F)=C/c6ccccn6)C5)nc(OC[C@@]56CCCN5C[C@H](F)C6)nc4c3F)c12`, the IC50 is reported as 20 nM.

For `C#Cc1c(F)ccc2cc(O)cc(-c3ccc4c(N5CCN(C(=O)/C(F)=C/c6nccs6)CC5)nc(OC[C@@]56CCCN5C[C@H](F)C6)nc4c3F)c12`, the IC50 was 2 nM.

With `CN1CCC[C@H]1COc1nc(N2CCN(C(=O)/C(F)=C/c3nccs3)[C@@H](CC#N)C2)c2ccc(-c3cc(O)cc4ccccc34)c(F)c2n1` the IC50 was 16 nM.

In the case of `C#Cc1c(F)ccc2cc(O)cc(-c3ccc4c(N5CCN(C(=O)/C(F)=C/c6ccccn6)CC5)nc(OC[C@@]56CCCN(C)[C@]5(C)CCC6)nc4c3F)c12`, the IC50 is reported as 6.4 nM.

For `CN1CCC[C@H]1COc1nc(N2CCN(C(=O)/C(F)=C/c3ncccn3)[C@@H](CC#N)C2)c2ccc(-c3cc(O)cc4ccccc34)c(F)c2n1`, the IC50 was 10 nM.

`N#CC[C@H]1CN(c2nc(OC[C@@]34CCCN3C[C@H](F)C4)nc3c(F)c(-c4cc(O)cc5ccccc45)ccc23)CCN1C(=O)/C(F)=C/c1ncccn1` showed an IC50 of 11 nM.
